# According to EP1311531B1, “STEROID DERIVED ANTIBIOTICS” (Brigham Young University, priority 2000, dated 2002):
# Like-named read-outs stand apart in the source and are kept apart here.
# Columns and labels:
# [1] = system: Escherichia coli ATCC 25922; conditions: ATCC25922
# Experimental: (§6) FICs can be performed by checkerboard titrations of compounds in one dimension of a microtiter plate, and of antibiotics in the other dimension, for example. The FIC is calculated by looking at the impact of one antibiotic on the MIC of the other and vice versa. […] As used herein, FIC can be determined as follows: FIC = (MIC(compound in combination))/(MIC(compound alone)) + (MIC(antibiotic in combination))/(MIC(antibiotic alone)) [formula]
# (§7) Aliquots of 1 mL of the suspension were added to test tubes containing 1 mL TSB and incrementally varied concentrations of cholic acid derivatives and/or erythromycin or novobiocin. […] Additionally, an alliquot from each of the samples showing no measurable turbidity was subcultured on TSA plates (alliquots were diluted to provide fewer than 300 CFU). Colonies that grew on the subculture after overnight incubation were counted and the number of CFU/mL in the samples were calculated. The calculated values were compared to the number of CFU/mL in the original inoculum.
# [2] = Minimum hemolytic concentration (MHC); assay type: cell-based; conditions: Table 10
# Experimental: Minimum inhibition concentrations (MIC) and minimum hemolytic concentrations (MHC) were measured as described in Li et al., Antimicrob. Agents. Chemother., 1999, 43, 1347. […]
# [3] = system: Salmonella typhimurium ATCC 14028; assay: Sensitization to erythromycin, novobiocin or rifampicin (permeabilization, FIC); assay type: cell-based
# Experimental: (§1) FICs can be performed by checkerboard titrations of compounds in one dimension of a microtiter plate, and of antibiotics in the other dimension, for example. The FIC is calculated by looking at the impact of one antibiotic on the MIC of the other and vice versa. […] Preferably, an FIC of less than 0.5 is obtained for synergism. As used herein, FIC can be determined as follows: FIC = (MIC(compound in combination))/(MIC(compound alone)) + (MIC(antibiotic in combination))/(MIC(antibiotic alone)) [formula]
# (§2) Aliquots of 1 mL of the suspension were added to test tubes containing 1 mL TSB and incrementally varied concentrations of cholic acid derivatives and/or erythromycin or novobiocin. In the sensitization experiments, erythromycin or novobiocin were added 15 minutes later than the cholic acid derivatives. The samples were subjected to stationary incubation at 37°C for 24 hours. Sample turbidity was determined by measuring absorption at 760 nm (HP 8453 UV-Visible Chemstation, Hewlett Packard). Additionally, an alliquot from each of the samples showing no measurable turbidity was subcultured on TSA plates (alliquots were diluted to provide fewer than 300 CFU). Colonies that grew on the subculture after overnight incubation were counted and the number of CFU/mL in the samples were calculated. The calculated values were compared to the number of CFU/mL in the original inoculum.
# (§3) Concentrations of 0.5, 1.0 or 3.0 µg/mL of these antibiotics were used, and the concentrations of the cholic acid derivatives required to inhibit bacterial growth of Gram-negative strains were determined.
# [4] = system: Pseudomonas aeruginosa ATCC 27853; assay: as above; assay type: cell-based; conditions: for MBC: Pseudomonas aeruginosa; for MBC / concentration required to lower the MIC of erythromycin from 240 µg/mL to 5 µg/mL: Table 7, with erythromycin; for MBC / concentration required to lower the MIC of erythromycin from 240 µg/mL to 5 µg/mL / concentration required to lower the MIC of novobiocin from >500 µg/mL to 1 µg/mL: P. aureginosa (ATCC 27853); for concentration required to lower the MIC of novobiocin from >500 µg/mL to 1 µg/mL: Table 8, with novobiocin
# Experimental: as §1, §2, §3
# [5] = system: Klebsiella pneumonia ATCC 13883; assay: as above; assay type: cell-based, Klebsiella pneumoniae
# E. coli (ATCC 10798) = assay: Sensitization to erythromycin or novobiocin (outer membrane permeabilization, FIC); assay type: cell-based, Escherichia coli; conditions: E. coli (ATCC 10798); for MBC: Escherichia coli; for concentration required to lower the MIC of erythromycin from 70 µg/mL to 1 µg/mL: Table 2
# Experimental: as §1, §2
# They were also tested for the ability to permeabilize the outer membrane of Gram-negative bacteria, causing sensitization to hydrophobic antibiotics that cannot cross the outer membrane. The permeabilization of the outer membrane was measured using erythromycin and novobiocin.
# [6] = system: Escherichia coli ATCC 25922; assay: Sensitization to erythromycin, novobiocin or rifampicin (permeabilization, FIC); conditions: for MBC: Escherichia coli, ATCC25922; for concentration required to lower the MIC of erythromycin from 60 µg/mL to 1 µg/mL: Table 5, E. coli (ATCC 25922), with erythromycin; for FIC / concentration required for bacterial growth inhibition: Table 13, with rifampicin (order of b151), Escherichia coli ATCC 25922
# Experimental: as §6, §7
# [7] = system: Staphylococcus aureus ATCC 25923; assay: MIC and MBC measurement; assay type: cell-based; conditions: ATCC25923, Table 10, Staphylococcus aureus ATCC 25923; for MIC: read-out: MIC
# Excerpt: (§4) General: Microorganisms. Reference strains were purchased from the American Type Culture Collection (Rockville, MD) or Bactrol disks from Difeo Laboratories (Detroit, MI). The following specific ATCC strains were used: 10798 Escherichia coli, 25922 Escherichia coli, 13883 Klebsiella pneumoniae, 27853 Pseudomonas aeruginosa, 14028 Salmonella typhimurium, 29212 Enterococcus faecalis, 25923 Staphylococcus aureus, 19615 Streptococcus pyogenes, and 90028 Candida albicans. Bacterial strains were maintained on Mueller-Hinton agar plates, and Candida albicans was maintained on Sabouraud Dextrose agar plates.
# (§5) Tryptic soy broth (TSB) was made by dissolving 27.5 grams of tryptic soy broth without dextrose (DIFCO Laboratories) in 1 liter of deionized water and sterilizing at 121 °C for 15 minutes. Solid agar (TSA) plates were made by dissolving 6.4 grams of tryptic soy broth and 12 grams of agar (purified grade, Fischer Scientific) in 800 mL of deionized water and sterilizing at 121 °C for 20 minutes. Aliquots (20 mL) of the homogeneous solution were then poured in sterile plastic petri dishes (100 x 15 mm, Fisher Scientific). Solutions of compounds were made by dissolving the HCl salt of the respective compound into an appropriate amount of deionized and sterilized water followed by microfiltration.
# as §2, with “inoculum. […]” for “inoculum.”
# [8] = system: Escherichia coli ATCC 25922; assay: MIC and MBC measurement; assay type: cell-based; conditions: Escherichia coli; for MIC: read-out: MIC
# Excerpt: as §4, §5
# as §2, with “inoculum. […]” for “inoculum.”
# [9] = Table 11, with erythromycin (order of b151)
# [10] = Table 12, with novobiocin (order of b151)
# [11] = Table 12, with novobiocin (order of b151), Pseudomonas aeruginosa ATCC 27853
# [12] = Table 13, with rifampicin (order of b151), Pseudomonas aeruginosa ATCC 27853^b (footnote b not given)
# [13] = Table 12, with novobiocin (order of b151), Klebsiella pneumonia ATCC 13883
# [14] = Table 13, with rifampicin (order of b151), Klebsiella pneumonia ATCC 13883
# [15] = ATCC10798, Table 2, with erythromycin
# [16] = ATCC10798, Table 3, with novobiocin
# [17] = ATCC25922, Table 4, E. coli (ATCC 25922)
# [18] = ATCC25922, Table 10, Escherichia coli ATCC 25922
Structure (SMILES),MHC [2] [µg/mL],"FIC [3, 9]","concentration required for bacterial growth inhibition [3, 9] [µg/mL]",FIC ([4]; ATCC27853),concentration required for bacterial growth inhibition ([4]; ATCC27853) [µg/mL],MBC ([4]; ATCC27853) [µg/mL],concentration required to lower the MIC of erythromycin from 240 µg/mL to 5 µg/mL [4] [µg/mL],concentration required to lower the MIC of novobiocin from >500 µg/mL to 1 µg/mL [4] [µg/mL],FIC ([5]; ATCC13883),concentration required for bacterial growth inhibition ([5]; ATCC13883) [µg/mL],MBC (E. coli (ATCC 10798); [15]) [µg/mL],MBC (E. coli (ATCC 10798); [16]) [µg/mL],concentration required to lower the MIC of erythromycin from 70 µg/mL to 1 µg/mL (E. coli (ATCC 10798); with erythromycin) [µg/mL],MBC [6] [µg/mL],concentration required to lower the MIC of erythromycin from 60 µg/mL to 1 µg/mL [6] [µg/mL],MBC [7] [µg/mL],MIC [7] [µg/mL],"MBC [8, 17] [µg/mL]","MIC [8, 17] [µg/mL]","MBC [8, 18] [µg/mL]",further results
C[C@H](CCCN(C)Cc1ccccc1)[C@H]1CC[C@H]2[C@@H]3[C@H](OCCN)C[C@@H]4C[C@H](OCCN)CC[C@]4(C)[C@H]3C[C@H](OCCN)[C@]12C [Compound 1],78,0.19,3.6,0.29,6.6,45,8,6,0.072,1.0,20,34,2,14,2,5.7,3.1,40,25,22,"concentration required for bacterial growth inhibition [1]: 0.35 µg/mL; FIC [3, 10]: 0.22; concentration required for bacterial growth inhibition [3, 10]: 4.4 µg/mL; concentration required for bacterial growth inhibition [4, 11]: 3.9 µg/mL; FIC [4, 12]: 0.096; concentration required for bacterial growth inhibition [5, 13]: 4.7 µg/mL; FIC [5, 14]: 0.043; concentration required for bacterial growth inhibition [5, 14]: 0.40 µg/mL; FIC [6]: 0.099; concentration required for bacterial growth inhibition [6]: 0.74 µg/mL; MIC [8, 18]: 22 µg/mL"
C[C@H](CCCN(C)Cc1ccccc1)[C@H]1CC[C@H]2[C@@H]3[C@H](OCCCNC(=N)N)C[C@@H]4C[C@H](OCCCNC(=N)N)CC[C@]4(C)[C@H]3C[C@H](OCCCNC(=N)N)[C@]12C [Compound 5],26,0.23,0.46,0.42,2.3,10,3,6,0.080,0.15,3,4,1,1.5,1.5,3.2,0.6,4,2,3.8,"FIC [1]: 0.31; MIC [8, 18]: 1.4 µg/mL"
C[C@H](CCCN(C)Cc1ccccc1)[C@H]1CC[C@H]2[C@@H]3[C@H](OCCCN)C[C@@H]4C[C@H](OCCCN)CC[C@]4(C)[C@H]3C[C@H](OCCCN)[C@]12C [Compound 2],58,0.17,2.0,0.25,2.4,25,4,4,0.048,0.25,10,16,1,5,1,4.7,1,20,10,6.8,"concentration required for bacterial growth inhibition [1]: 0.33 µg/mL; FIC [3, 10]: 0.36; concentration required for bacterial growth inhibition [3, 10]: 4.5 µg/mL; concentration required for bacterial growth inhibition [4, 11]: 2.9 µg/mL; FIC [4, 12]: 0.086; concentration required for bacterial growth inhibition [5, 13]: 0.49 µg/mL; FIC [5, 14]: 0.035; concentration required for bacterial growth inhibition [5, 14]: 0.12 µg/mL; FIC [6]: 0.22; concentration required for bacterial growth inhibition [6]: 0.80 µg/mL; MIC [8, 18]: 5.1 µg/mL"
